Where a SMILES comes first, the peptide text is derived from it. Where no end group is shown, it is not given here.
How the values were obtained:
[1] = system: Candida albicans; assay: Radial diffusion assay; type: cell-based; settings: for antimicrobial activity against C. albicans (diameter of inhibition zones): 4 µg peptide, variants compared with RGKAKCCK (Fig. 1E,F, Fig. 2A)
Method: (§1) Antimicrobial radial diffusion assay was modified from reference[17] and performed as described earlier. Briefly, microorganisms were cultivated (anaerobic bacteria with AnaeroGen, Oxoid, UK) for up to 18 hours in liquid TSB medium. Log-phase cultures were washed and diluted to 4 × 10^6 colony forming units in 10 ml agar. Incubation was carried out in 10 ml of 10 mM sodium phosphate, either pH 7.4 or 5.7, containing 0.3 mg/ml of TSB powder and 1% (w/v) low EEO-agarose (AppliChem) with 0 or 1 mM dithiothreitol (DTT, Sigma-Aldrich) under anaerobic or aerobic conditions for three hours. 1 or 4 µg of synthetic, oxidized hBD-1 (Peptide Institute, Japan) and 1 or 4 µg of synthetic peptides (EMC Microcollections, Tuebingen) were filled into small punched wells in a final volume of 4 µl. This concentrated peptide solution dilutes while diffusing into the gel, thereby generating concentration-dependent, round-shaped inhibition zones when killing immobilized microorganisms.
(§2) An overlay-gel containing 6% (w/v) TSB powder, 1% agarose and 10 mM sodium phosphate buffer without DTT was poured onto the plates and after incubation for up to 48 h at 37 °C the diameter of inhibition zones was measured. Experiments were repeated at least three times; mean + SEM is shown.

[2] = system: Escherichia coli; assay: Radial diffusion assay; type: cell-based; settings: for antimicrobial activity against E. coli (diameter of inhibition zones): 4 µg peptide, variants compared with RGKAKCCK (Fig. 1E,F, Fig. 2A)
Method: as §1, §2

[3] = type: in vitro ADME, human; settings: pH 6.5
Method: (§3) 2 µg of oxidized or reduced hBD-1 were digested with pepsin or chymotrypsin at a protease: peptide ratio of 1:20 in HCl-acidified water, pH 3 (pepsin) or 10 mM sodium phosphate, pH 7.4 (chymotrypsin) for 90 min. Human duodenal secretion (pH 6.5–7) was taken during a routine gastroscopy by rinsing the duodenum with saline. Oxidized and reduced hBD-1 were incubated with human duodenal secretion for 30 min at 37 °C. As a control both peptides were incubated with 0.9% NaCl. Peptides were enriched with ZipTip (Millipore), co-crystallized with a-cyano-4-hydroxy cinnamic acid and analyzed with an ultraflex TOF/TOF machine (Bruker, Germany).

[4] = system: Bifidobacterium breve; assay: Radial diffusion assay; type: cell-based; settings: 1 or 4 µg peptide per well (Fig. 1D)
Method: as §1, §2

[5] = system: trypsin; settings: cited from earlier work
Text: Due to their ancient evolutionary origin and the strong demand for novel antimicrobial strategies, AMPs have been considered as potential antibiotic drug candidates. Mainly because they target “Achilles heels” of microorganisms, only few resistance mechanisms have been evolved over long time[14],[15]. Still, large-scale chemical synthesis of defensins containing three native disulphide-bridges has been a challenge and rendered the production expensive. Accordingly, the production of smaller, but yet antibiotic, fragments of defensins without disulphide bridges is a promising option. We have sh ...

[6] = system: E. coli ATCC 25922; assay: Broth microdilution assay (turbidity and CFU); type: cell-based, Escherichia coli; settings: 100 µg/ml peptide, 2 hours at 37 °C, plated on agar (Fig. 2D)
Method: To differentiate between microbistatic and microbicidal activity we performed a broth microdilution assay. For that, E. coli ATCC25922 bacteria were incubated overnight at 37 °C, 150 rpm. C. albicans ATCC 10231 was grown at 30 °C overnight, 150 rpm in liquid TSB. Cells were collected by centrifugation (2500 rpm, 10 min, 4 °C), washed twice and resuspended in 10 mM sodium phosphate buffer containing 1% (w/v) TSB broth. Required C. albicans cell density was adjusted using a hemocytometer. For bacteria the optical density of OD600nm = 0.1 was determined. Approximately 5 × 10^5 CFU/ml bacteria or fungi were mixed with indicated peptide concentrations (1.25–200 µg/ml) in a final volume of 100 µl in 10 mM sodium phosphate buffer containing 1% (w/v) TSB broth and incubated for 2 hours at 37 °C. After incubation 10 µl per well were plated on LB-/ or YPD-agar plates to determine the CFU/ml. After that 100 µl of 6% TSB (w/v) were added and absorbance was measured at 600 nm (Tecan, Switzerland) and monitored for 18 hours. Growth relative to the positive control in % was plotted against peptide concentration. Experiments were carried out at least three times; mean ± SEM is shown.

[7] = system: C. albicans SC5314; assay: Model of oral candidiasis: RHOE infected with C. albicans; type: cell-based, Candida albicans; settings: RHOE preincubated 1 h with 50 µg/ml peptide, infected with C. albicans for 24 h; for fungal load / invasion of the epithelium: histology (Fig. 5A)
Method: Octapeptides were diluted to 50 µg/ml in PBS, or an equivalent volume of 0.01% acetic acid were applied to the apical side of the RHOEs and incubated for 1 h. C. albicans SC5314 was synchronized as described previously. Yeast cells were washed three times in PBS and 1 × 10^5 CFU were used for infection of pre-treated RHEs. After 24 h RHEs were fixed with Karnovsky’s fixative. Post-fixed samples (1% OsO4, 1 h) were rinsed with distilled water, block-stained with uranyl acetate (2% in distilled water), dehydrated in alcohol (stepwise 30–96%), immersed in propylene oxide and embedded in glycide ether (polymerized 48 h at 60 °C, Serva, Heidelberg). Semi-thin sections were stained with toluidine blue and examined with a Nikon Eclipse 80i light microscope (magnification 1:400). Afterwards, fungal cells were simply coloured in red.

[8] = system: pepsin; assay: Protease digestion with pepsin, fragments analysed by MALDI-MS; type: in vitro ADME; settings: 2 µg peptide, protease:peptide 1:20, HCl-acidified water pH 3, 90 min
Method: as §3

[9] = system: chymotrypsin; assay: Protease digestion with chymotrypsin, fragments analysed by MALDI-MS; type: in vitro ADME; settings: 2 µg peptide, protease:peptide 1:20, 10 mM sodium phosphate pH 7.4, 90 min
Method: as §3

[10] = system: Bifidobacterium adolescentis; assay: Radial diffusion assay; type: cell-based; settings: 10 mM sodium phosphate, 1 or 4 µg peptide per well, at least three experiments (Fig. 1D)
Method: as §1, §2

[11] = system: Pseudomonas aeruginosa; assay: Radial diffusion assay; type: cell-based; settings: P. aeruginosa ATCC type strain (Figs 1D, 2A)
Method: as §1, §2

[12] = system: Streptococcus salivarius ssp. thermophilus; assay: Radial diffusion assay; type: cell-based; settings: 1 or 4 µg peptide per well, at least three experiments (Fig. 1D)
Method: as §1, §2

[13] = system: selected commensal and pathogenic microorganisms; assay: Radial diffusion assay, semi-quantitative evaluation on a molar base; type: cell-based; settings: 4 µg reduced hBD-1 equivalent to 254 µM, 1 µg octapeptide equivalent to 280 µM in the RDA
Method: as §1, §2

[14] = system: antibiotic-resistant bacteria; assay: Radial diffusion assay, drug-resistant clinical isolates overall; type: cell-based; settings: 4 µg peptide, direct comparison of the four peptides (Fig. 2B)
Method: as §1, §2

[15] = system: E. coli ATCC 25922; assay: Flow cytometric assay, propidium iodide uptake; type: cell-based, Escherichia coli; settings: 100 µg/ml peptide, 1 h, flow cytometry, at least three experiments (Fig. 3A)
Method: (§4) Approximately 1.5 × 10^6 CFU log-phase bacteria or overnight cultured C. albicans ATCC 10231 were used in a final volume of 100 µl TSB (1:6 diluted H2O). We added peptides in concentrations 50 and 100 µg/ml in a final volume of 10 µl and incubated theses suspensions for 1 h at 37 °C. Subsequently 2 µl of membrane potential sensitive dye DiBAC4(3) [bis-[1,3-dibutylbarituric acid)trimethine oxonol] (Thermo Scientific, USA) (50 µg/ml) or Propidium Iodide (Thermo Scientific, USA) (50 µg/ml) were added and incubated for 10 min at room temperature. Then samples were centrifuged (5 min, 7000 rpm, RT) and re-suspended in 300 µl PBS. The percentage of fluorescent positive cells was determined using Canto II flow cytometer (BD Bioscience) with DIVA software (BD Bioscience) as described earlier. Experiments were repeated at least three times and mean +/− SEM is shown.

[16] = system: C. albicans ATCC 10231; assay: Flow cytometric assay, propidium iodide uptake; type: cell-based, Candida albicans; settings: 100 µg/ml peptide, 1 h, flow cytometry (Fig. 3A)
Method: as §4

[17] = 1 or 4 µg peptide per well, at least three experiments (Fig. 1D)

Compound: RGKAKCAK [octapeptide with Cys7 replaced by alanine]
- antimicrobial activity against C. albicans (diameter of inhibition zones) [1]: strongly decreased activity
- antimicrobial activity against E. coli (diameter of inhibition zones) [2]: increased

Compound: DHYNCVSSGGQCLYSACPIFTKIQGTCYRGKAKCCK [reduced hBD-1, hBD-1 after reduction of its three disulphide bridges, a linear peptide]
- digestion by human duodenal secretion (generation of fragment m/z 893.5) [3]: generated a fragment having an m/z of 893.5
- antimicrobial activity (inhibition zones) [4]: inhibited its growth
- degradation by the intestinal protease trypsin [5]: can be degraded

Compound: CC(=O)N[C@@H](CCCNC(=N)N)C(=O)NCC(=O)N[C@@H](CCCCN)C(=O)N[C@@H](C)C(=O)N[C@@H](CCCCN)C(=O)N[C@@H](CS)C(=O)N[C@@H](CS)C(=O)N[C@@H](CCCCN)C(N)=O [Ac-RGKAKCCK-NH2] (Ac-RGKAKCCK-NH2)
- decrease in CFU of E. coli compared to untreated controls [6]: more than 100 fold
- fungal load / invasion of the epithelium [7]: invaded the whole epithelium

Compound: DHYNCVSSGGQCLYSACPIFTKIQGTCYRGKAKCCK (disulfide (positions not given here)) [oxidized hBD-1, host-defense peptide human beta-defensin 1 with three disulphide bridges]
- proteolytic susceptibility towards pepsin [8]: protease resistant
- proteolytic susceptibility towards chymotrypsin [9]: protease resistant
- antimicrobial activity (inhibition zones) [4]: no inhibition zones

Compound: RGKAKACK [octapeptide with Cys6 replaced by alanine]
- antimicrobial activity against C. albicans (diameter of inhibition zones) [1]: strongly decreased activity
- antimicrobial activity against E. coli (diameter of inhibition zones) [2]: increased

Compound: AGAAKCCK [variant lacking Arg1 and Lys3]
- antimicrobial activity against C. albicans (diameter of inhibition zones) [1]: completely inactive
- antimicrobial activity against E. coli (diameter of inhibition zones) [2]: completely inactive

Compound: RGKAKAAK [octapeptide with both cysteines replaced]
- antimicrobial activity against C. albicans (diameter of inhibition zones) [1]: completely abolished activity
- antimicrobial activity against E. coli (diameter of inhibition zones) [2]: completely abolished activity

Compound: AGKAKCCK [variant lacking Arg1]
- antimicrobial activity against C. albicans (diameter of inhibition zones) [1]: completely inactive
- antimicrobial activity against E. coli (diameter of inhibition zones) [2]: completely inactive

Compound: C[C@H](NC(=O)[C@H](CCCCN)NC(=O)CNC(=O)[C@@H](N)CCCNC(=N)N)C(=O)N[C@@H](CCCCN)C(=O)N[C@@H](CS)C(=O)N[C@@H](CS)C(=O)N[C@@H](CCCCN)C(=O)O [RGKAKCCK] (H-RGKAKCCK-OH)
- antimicrobial activity (diameter of inhibition zones) [10]: convincing activity
- antimicrobial activity (inhibition zones) [4]: no inhibition zones
- antimicrobial activity (diameter of inhibition zones) [1, 17]: convincing activity
- antimicrobial activity (diameter of inhibition zones) [2, 17]: convincing activity
- antimicrobial activity (diameter of inhibition zones) [11]: neglectable antibiotic activity
- antimicrobial activity (diameter of inhibition zones) [12]: convincing activity
- activity on a molar base compared with the full length-peptide [13]: less potent
- spectrum against the tested antibiotic-resistant bacteria [14]: inhibited growth of the most tested antibiotic-resistant bacteria
- decrease in CFU of E. coli compared to untreated controls [6]: more than 100 fold
- PI uptake / bacterial killing (cell death) of E. coli [15]: ~100%
- PI uptake of C. albicans [16]: up to 60%
- epithelial damage ([7]; blinded scale 0 to 5 (Fig. 5B)): ameliorated epithelial damage
- fungal load / invasion of the epithelium [7]: convincingly reduced the fungal load

— article PMC6403363, “Proteolytic Degradation of reduced Human Beta Defensin 1 generates a Novel Antibiotic Octapeptide” (Scientific Reports, 2019)
